PubChem BioAssay (NCI)
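GI50 marks 50% less growth. TGI marks complete inhibition of growth.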

What was measured:
Test in all cases: NCI tumour cell line growth inhibition, 384-well format
NCI-H226 lung = tested on: NCI-H226 lung
NCI-H23 lung = tested on: NCI-H23 lung
NCI-H322M lung = tested on: NCI-H322M lung
NCI-H460 NSCLC = tested on: NCI-H460 NSCLC
NCI-H522 lung = tested on: NCI-H522 lung
NCI/ADR-RES ovarian = tested on: NCI/ADR-RES ovarian
OVCAR-3 ovarian = tested on: OVCAR-3 ovarian
OVCAR-4 ovarian = tested on: OVCAR-4 ovarian
OVCAR-5 ovarian = tested on: OVCAR-5 ovarian
OVCAR-8 ovarian = tested on: OVCAR-8 ovarian
PC-3 prostate = tested on: PC-3 prostate
RPMI-8226 leukemia = tested on: RPMI-8226 leukemia
RXF 393 renal = tested on: RXF 393 renal
SF-268 CNS = tested on: SF-268 CNS
SF-295 CNS = tested on: SF-295 CNS
SF-539 CNS = tested on: SF-539 CNS
SK-MEL-28 melanoma = tested on: SK-MEL-28 melanoma
SK-MEL-5 melanoma = tested on: SK-MEL-5 melanoma
SK-OV-3 ovarian = tested on: SK-OV-3 ovarian
SN12C renal = tested on: SN12C renal
SNB-19 CNS = tested on: SNB-19 CNS
SNB-75 CNS = tested on: SNB-75 CNS
SW-620 colon = tested on: SW-620 colon
T-47D breast = tested on: T-47D breast
TK-10 renal = tested on: TK-10 renal
U251 glioblastoma = tested on: U251 glioblastoma
UACC-257 melanoma = tested on: UACC-257 melanoma
UACC-62 melanoma = tested on: UACC-62 melanoma
UO-31 renal = tested on: UO-31 renal

Cc1cnc(CNC(=O)c2c(=O)c3ccc(N4CCCN(C)CC4)nc3n3c2sc2ccccc23)cn1
GI50 (NCI-H226 lung): 741 nM | TGI (NCI-H226 lung): > 100000 nM | GI50 (NCI-H23 lung): 714 nM | TGI (NCI-H23 lung): > 100000 nM | GI50 (NCI-H322M lung): 877 nM | TGI (NCI-H322M lung): > 100000 nM | GI50 (NCI-H460 NSCLC): 22.8 nM | TGI (NCI-H460 NSCLC): 1120 nM | GI50 (NCI-H522 lung): 19900 nM | TGI (NCI-H522 lung): > 100000 nM | GI50 (NCI/ADR-RES ovarian): > 100000 nM | TGI (NCI/ADR-RES ovarian): > 100000 nM | GI50 (OVCAR-3 ovarian): 462 nM | TGI (OVCAR-3 ovarian): 48500 nM | GI50 (OVCAR-4 ovarian): 383 nM | TGI (OVCAR-4 ovarian): 5560 nM | GI50 (OVCAR-5 ovarian): 27700 nM | TGI (OVCAR-5 ovarian): > 100000 nM | GI50 (OVCAR-8 ovarian): 234 nM | TGI (OVCAR-8 ovarian): > 100000 nM | GI50 (PC-3 prostate): 1600 nM | TGI (PC-3 prostate): 22300 nM | GI50 (RPMI-8226 leukemia): 58.3 nM | TGI (RPMI-8226 leukemia): 1620 nM | GI50 (RXF 393 renal): 80.6 nM | TGI (RXF 393 renal): > 100000 nM | GI50 (SF-268 CNS): 24.1 nM | TGI (SF-268 CNS): 88 nM | GI50 (SF-295 CNS): 608 nM | TGI (SF-295 CNS): > 100000 nM | GI50 (SF-539 CNS): 259 nM | TGI (SF-539 CNS): > 100000 nM | GI50 (SK-MEL-28 melanoma): 27000 nM | TGI (SK-MEL-28 melanoma): > 100000 nM | GI50 (SK-MEL-5 melanoma): 172 nM | TGI (SK-MEL-5 melanoma): 48000 nM | GI50 (SK-OV-3 ovarian): 1350 nM | TGI (SK-OV-3 ovarian): > 100000 nM | GI50 (SN12C renal): 307 nM | TGI (SN12C renal): > 100000 nM | GI50 (SNB-19 CNS): 322 nM | TGI (SNB-19 CNS): > 100000 nM | GI50 (SNB-75 CNS): 832 nM | TGI (SNB-75 CNS): > 100000 nM | GI50 (SW-620 colon): 99.1 nM | TGI (SW-620 colon): > 100000 nM | GI50 (T-47D breast): 21500 nM | TGI (T-47D breast): > 100000 nM | GI50 (TK-10 renal): 9170 nM | TGI (TK-10 renal): > 100000 nM | GI50 (U251 glioblastoma): 517 nM | TGI (U251 glioblastoma): > 100000 nM | GI50 (UACC-257 melanoma): 7630 nM | TGI (UACC-257 melanoma): > 100000 nM | GI50 (UACC-62 melanoma): 175 nM | TGI (UACC-62 melanoma): > 100000 nM | GI50 (UO-31 renal): 1540 nM | TGI (UO-31 renal): > 100000 nM
